Columns and labels:
Format in all cases: functional
[1] = system: Klebsiella pneumoniae; test: Antibacterial activity against Klebsiella pneumoniae isolate Kp2730 harboring IncL/M plasmid and blaIMP-4-qacG2-aacA4-catB3 and dfrA12-orfF-aadA2 arrays by Etest method in presence of clavulanic acid
[2] = system: Citrobacter freundii; test: Antibacterial activity against Citrobacter freundii isolate Cf1614 harboring IncL/M plasmid and blaIMP-4-qacG2-aacA4-catB3 array by Etest method in presence of clavulanic acid
[3] = system: Escherichia coli; test: Antibacterial activity against Escherichia coli isolate Ec158 harboring IncA/C plasmid and blaIMP-4-qacG2-aacA4-catB3 array by Etest method in presence of clavulanic acid
[4] = system: Klebsiella oxytoca; test: Antibacterial activity against Klebsiella oxytoca isolate Ko238 harboring IncA/C plasmid and blaIMP-4-qacG2-aacA4-catB3 array by Etest method in presence of clavulanic acid
[5] = system: Serratia marcescens; test: Antibacterial activity against Serratia marcescens isolate Sm265 harboring IncA/C plasmid and blaIMP-4-qacG2-aacA4-catB3 array by Etest method in presence of clavulanic acid
[6] = system: Klebsiella pneumoniae; test: Antibacterial activity against Klebsiella pneumoniae Kp1239 transconjugant harboring IncL/M plasmid and blaIMP-4-qacG2-aacA4-catB3 array by Etest method in presence of clavulanic acid
[7] = system: Klebsiella pneumoniae; test: Antibacterial activity against Klebsiella pneumoniae Kp2730 transconjugant harboring IncL/M plasmid and blaIMP-4-qacG2-aacA4-catB3 and dfrA12-orfF-aadA2 arrays by Etest method in presence of clavulanic acid
[8] = system: Enterobacter cloacae; test: Antibacterial activity against Enterobacter cloacae El3518 transconjugant harboring IncL/M plasmid and blaIMP-4-qacG2-aacA4-catB3 array by Etest method in presence of clavulanic acid
[9] = system: Morganella morganii; test: Antibacterial activity against Morganella morganii Mm38009 transconjugant harboring IncL/M plasmid and blaIMP-4-qacG2-aacA4-catB3 array by Etest method in presence of clavulanic acid
[10] = system: Klebsiella pneumoniae; test: Antibacterial activity against Klebsiella pneumoniae Kp38045 transconjugant harboring IncL/M plasmid and blaIMP-4-qacG2-aacA4-catB3 array by Etest method in presence of clavulanic acid
[11] = system: Morganella morganii; test: Antibacterial activity against Morganella morganii Mm1229 transconjugant harboring IncL/M plasmid and blaIMP-4-qacG2-aacA4-catB3 array by Etest method in presence of clavulanic acid
[12] = system: Enterobacter cloacae; test: Antibacterial activity against Enterobacter cloacae El3799 transconjugant harboring IncL/M plasmid and blaIMP-4-qacG2-aacA4-catB3 array by Etest method in presence of clavulanic acid
[13] = system: Klebsiella oxytoca; test: Antibacterial activity against Klebsiella oxytoca Ko0426 transconjugant harboring IncL/M plasmid and blaIMP-4-qacG2-aacA4-catB3 array by Etest method in presence of clavulanic acid
[14] = system: Citrobacter youngae; test: Antibacterial activity against Citrobacter youngae CyB38 transconjugant harboring blaIMP-4-qacG2-aacA4-catB3 array by Etest method in presence of clavulanic acid

Measured: MIC

CC1(C)S[C@@H]2[C@H](NC(=O)[C@H](N)c3ccc(O)cc3)C(=O)N2[C@H]1C(=O)O [AMOXICILLIN]
> 16 µg/mL: all assays above
